Results as given in article PMC12040169 (PLOS Biology, 2025).

Experiment: in vitro
Settings: human, hela cells, % viability

Row | Structure (SMILES) | viability at 28.5 h, 10 µM
1 | CN(C)c1ccccc1-c1cc(NC2CCCCC2)ncn1 [CBK037041] | 105%
2 | CN(C(=O)c1ccccc1N)c1ccccc1 [CBK086716] | 97.6%
3 | O=C(C1CCCCC1)N1CC[C@H](c2nnc(-c3cccnc3)o2)C1 [CBK289412] | 103%
4 | CCN(CC)C(=O)N1CCC2(CC1)CC(=O)c1ccccc1O2 [CBK283495] | 105%
5 | Cc1noc(C)c1NC(=O)c1cncnc1 [CBK200382] | 112%
6 | COc1ccc(Oc2coc3c(CN(C)C)c(O)ccc3c2=O)cc1 [CBK263653] | 95.7%
7 | Cc1nnc(SCc2ccc(CSc3nnc(C)n3N)cc2)n1N [CBK265561] | 106%
8 | CC1(C)CC(NC(=O)C23CCC(C)(c4nc5ccccc5nc42)C3(C)C)CC(C)(C)N1 (centres unmarked) [CBK266559] | 99.3%
9 | COc1ccc(OC)c(C2CC(c3ccc(NS(C)(=O)=O)cc3)=NN2C(=O)CCC(=O)O)c1 (centres unmarked) [CBK297781] | 107%
10 | COc1ccc(CC(=O)Nc2ccc(S(N)(=O)=O)cc2)cc1OC [CBK263429] | 92%
11 | c1ccc2c(c1)oc1cccc(-c3cc(NCCc4c[nH]cn4)ncn3)c12 [CBK037708] | 94.6%
12 | CC(C)CN1C(=O)COC[C@@H]1[C@H](O)c1ccc(NC(=O)c2cccnc2)cc1 [CBK289692] | 105%
13 | CCOC(=O)c1[nH]c2ccccc2c1NC(=O)Cc1c(Cl)cccc1Cl [CBK160132] | 95.6%
14 | O=C(CC1Nc2cccc3cccc(c23)NC1=O)Nc1ccccc1 (centres unmarked) [CBK268035] | 87.2%
15 | COc1cccc2c3c([nH]c12)C1(CCN(CCCC#N)CC1)N(C(C)=O)CC3 [CBK039722] | 99.6%
16 | Cc1nccn1-c1ccc(NC(=O)C2CC(=O)N(C3CCCC3)C2)cc1F (centres unmarked) [CBK298286] | 83.1%
17 | C[C@@H](c1ccccc1)n1c(=O)[nH]c2ncc(-c3ccc(N(C)C)cc3)nc21 [CBK064352] | 103%
18 | O=C(Nc1sc2c(c1CN1CCCCCC1)CCCC2)c1ccccc1 [CBK261811] | 91%
19 | COc1ccc(Oc2cncc(OC3CCN(CCCn4c(=O)[nH]c5ccccc54)C3)n2)cc1OC (centres unmarked) [CBK084406] | 97.6%
20 | CC(C)(C)OC(=O)N1CCCC(C(=O)NC2CCCc3ccccc32)C1 (centres unmarked) [CBK305617] | 93.2%
21 | Cc1cc(C)cc(NC(=O)CSc2ncnc3c2oc2ccccc23)c1 [CBK287394] | 90.5%
22 | Nc1nc(=O)[nH]c2c1ncn2[C@@H]1O[C@H](CO)[C@H](O)C1O (some centres unmarked) [CBK201282] | 93.7%

Row | Structure (SMILES) | viability at 28.5 h, 10 µM
23 | CCOc1cc(C)c(C(C)C)cc1S(=O)(=O)NCCN1CCOCC1 [CBK268727] | 110%
24 | Cc1cnc(C)c(N2CCN(c3cc([C@H]4C[C@@H](N)C4)ncn3)CC2)n1 [CBK307118] | 88.7%
25 | Nc1ncc(-c2ccco2)nc1NCC1CCOCC1 [CBK063825] | 100%
26 | COc1cc(-c2cnc(N)c(NCC(C)(C)CO)n2)cc(OC)c1OC [CBK063523] | 92.2%
27 | COc1ccc(S(=O)(=O)NCc2ccccn2)cc1NC(C)=O [CBK269554] | 103%
28 | CC(C)(C)OC(=O)N1CCCC(NCc2ccccn2)CC1 (centres unmarked) [CBK305128] | 106%
29 | Cc1cc(NS(=O)(=O)c2ccc(OCCNS(C)(=O)=O)cc2)no1 [CBK268530] | 102%
30 | CC(=O)N1CCc2c([nH]c3ccccc23)C1CNCc1ccc(F)cc1 (centres unmarked) [CBK066968] | 96.6%
31 | NC(=O)c1c(NC(=O)CSC2=NCCS2)sc2c1CCCC2 [CBK269989] | 87.9%
32 | Cc1sc(NC(=O)COc2ccccc2)c(C(N)=O)c1-c1ccccc1 [CBK268164] | 97.8%
33 | Cc1cccc(OCc2nc3c4c5c(sc4ncn3n2)CCCCC5)c1C [CBK265284] | 104%
34 | COc1ccc(NC(=O)c2cc(-c3cccnc3)nc3c(C)c(C)ccc23)c(OC)c1 [CBK267746] | 96.2%
35 | CCCCOc1nccnc1-c1ccsc1 [CBK106778] | 101%
36 | N#Cc1ccccc1CSc1nnc(-c2ccco2)n1-c1ccccc1 [CBK267270] | 91.8%
37 | C=C(C)Cn1c(SCC(C)C)nnc1-c1ccccc1OC [CBK200071] | 91.5%
38 | Cc1cc2n(n1)C(c1ccc(C(=O)O)cc1)Nc1ccccc1-2 (centres unmarked) [CBK287000] | 80.8%
39 | CCOc1ccc(-n2c(C)cc(C(=O)NS(=O)(=O)c3ccc(C)cc3)c2C)cc1 [CBK296084] | 90.1%
40 | O=S(=O)(c1sccc1F)N1CCOCC1c1cccc(F)c1 (centres unmarked) [CBK304730] | 82.6%
41 | Cc1c(C(=O)NCCN2CCC(C)CC2)oc2c1C(O)CC(C)(C)C2 (centres unmarked) [CBK282100] | 87.1%
42 | CC(C)C(CNCc1ccc(F)c(Cl)c1)c1ccnn1C (centres unmarked) [CBK305130] | 82.9%
43 | CC(c1ccc(Cl)cc1Cl)N(C)C(=O)Cn1cnc2c1CCCC2 (centres unmarked) [CBK306387] | 88%
44 | Cc1cc(CN(C)Cc2c(C)nc3c(C)cccn23)n[nH]1 [CBK281716] | 99.1%
